Test results published in paper PMC10384862, “[^212Pb]Pb-eSOMA-01: A Promising Radioligand for Targeted Alpha Therapy of Neuroendocrine Tumors” (Pharmaceuticals, 2023).
Where two headings read alike, the source gives them in different places.

Assays:
[1] = tested on: H69-xenograft Balb/c nu/nu mice; assay: Biodistribution study with lead-212; type: in vivo, mouse; conditions: for Stomach uptake: 1 h p.i.
Experimental: (§1) Six-week-old male Balb/c nu/nu-specific and opportunistic pathogen-tree (SOPF) mice (Janvier Labs, Le Genest-Saint-Isle, France) were housed in individually ventilated cages, with four mice per cage. Upon arrival, the mice were acclimated for 1 week with access to food and water ad libitum. Mice were subcutaneously inoculated on the right shoulder with NCI-H69 cells (5 × 10^6 cells suspended in 100 μL of 1/3 Matrigel (Corning Inc.; Corning, NY, USA) and 2/3 Hank’s balanced salt solution (Gibco; Paisley, UK). NCI-H69 xenografts were allowed to grow for 3 weeks. Tumor sizes were 391 ± 173 mm^3 at the start of the studies.
(§2) Biodistribution studies were performed to determine tumor and organ uptake of [^212Pb]Pb-DOTAM-TATE, [^212Pb]Pb-eSOMA-01, and [^212Pb]Pb-eSOMA-02. Animals (n = 4 for each time point) were injected intravenously (i.v.) with an average of 100 kBq/0.5 nmol. At 3 selected time points (1, 4, and 24 h) p.i., blood was collected via retro-orbital puncture under isoflurane/O2 anesthesia, after which the mice were sacrificed via cervical dislocation. The tumor and organs of interest (heart, lungs, liver, spleen, stomach, large intestine, small intestine, pancreas, kidneys, muscle, skin, and bone) were excised, washed in PBS, and blotted dry. To confirm receptor specificity of radioligand uptake, mice (n = 3) were co-injected with an excess (25 nmol) of the respective unlabeled peptide, and uptake in the organs of interest was determined at 24 h p.i. To determine the total injected radioactivity per animal, a calibration curve with lead-212 was established using the gamma counter. The percentage of injected dose per gram (% ID/g) was determined for each tissue sample and corrected for both the injected volume and the % ID present at the injection site (the tail).

[2] = Biodistribution study with lead-212; type: in vivo, mouse; conditions: mouse, intravenous; for tissue uptake at 1 h: 1 h p.i.; for tissue uptake at 4 h: 4 h p.i.
Experimental: as §1, §2

[3] = In vitro stability in PBS; type: physicochemical; conditions: ^212Pb-labeled, 37 °C, n = 1
Experimental: The ^203Pb-labeled compounds (~ 2 MBq) or the ^212Pb-labeled compounds (~ 70 kBq) were incubated in 300 µL of phosphate buffered saline (PBS; 0.1 M, pH 7.4) or mouse serum at 37 °C. The stability of the radiolabeled peptides was monitored at 1, 4, and 24 h post-incubation. The samples in PBS were directly analyzed by radio-HPLC without any pretreatment. However, samples of mouse serum were mixed with an equal volume of acetonitrile to precipitate the proteins. The solution was centrifuged twice for 5 min at 13,000 rpm, and the supernatant was analyzed by radio-HPLC using Method 1 for lead-203 and Method 2 for lead-212.

[4] = tested on: CD-1 mice; conditions: cited from earlier work; for Pancreas uptake: CD-1 mice
[5] = tested on: kidney uptake; conditions: in vivo; cited from earlier work
[6] = tested on: H69-tumor xenograft and organs; assay: Dosimetry (absorbed dose from 212Pb biodistribution, RADAR mouse phantom); type: in vivo; conditions: based on MTD to the kidneys of 18–23 Gy
Experimental: Single exponential curves were fitted through the organ biodistribution time-activity data using Graphpad Prism. […] The absorbed doses were calculated with the MIRD equation D=∑sms×[TIACs]×S(t←s) , with ms being the source organ mass. A relative biological effect (RBE) of 5 was assumed for the alpha-radiation [47]. The uncertainty propagation in the dosimetry result was calculated [48].

[7] = blood, 100 kBq, n = 4, read-out: Blood uptake
[8] = bone, 100 kBq, n = 4, read-out: Bones uptake
[9] = heart, 100 kBq, n = 4, read-out: Heart uptake
[10] = intestines, 100 kBq, n = 4, read-out: Intestines uptake
[11] = intestines, 100 kBq, 24 h p.i., n = 4, read-out: Intestines uptake
[12] = kidneys, 100 kBq, n = 4, read-out: Kidneys uptake
[13] = kidneys, 100 kBq, 24 h p.i., n = 4, read-out: Kidneys uptake
[14] = kidneys, 24 h block: co-injection of excess (25 nmol) unlabeled peptide, read-out: Kidneys uptake
[15] = liver, 100 kBq, n = 4, read-out: Liver uptake
[16] = liver, 100 kBq, 24 h p.i., n = 4, read-out: Liver uptake
[17] = liver, 24 h block: co-injection of excess (25 nmol) unlabeled peptide, read-out: Liver uptake
[18] = lungs, 100 kBq, n = 4, read-out: Lungs uptake
[19] = lungs, 100 kBq, 24 h p.i., n = 4, read-out: Lungs uptake
[20] = pancreas, 100 kBq, n = 4, read-out: Pancreas uptake
[21] = skin, 100 kBq, n = 4, read-out: Skin uptake
[22] = spleen, 100 kBq, n = 4, read-out: Spleen uptake
[23] = stomach, 100 kBq, n = 4, read-out: Stomach uptake
[24] = stomach, 100 kBq, 24 h p.i., n = 4, read-out: Stomach uptake
[25] = stomach, 24 h block: co-injection of excess (25 nmol) unlabeled peptide, read-out: Stomach uptake
[26] = tumor, 100 kBq, n = 4, read-out: Tumor uptake
[27] = tumor, 100 kBq, 24 h p.i., n = 4, read-out: Tumor uptake

C[C@@H](O)[C@H](NC(=O)[C@@H]1CSSC[C@H](NC(=O)[C@@H](Cc2ccccc2)NC(=O)CN2CCN(CC(N)=O)CCN(CC(N)=O)CCN(CC(N)=O)CC2)C(=O)N[C@@H](Cc2ccc(O)cc2)C(=O)N[C@H](Cc2c[nH]c3ccccc23)C(=O)N[C@@H](CCCCN)C(=O)N[C@@H]([C@@H](C)O)C(=O)N1)C(=O)O [[^212Pb]Pb-DOTAM-TATE, metal not drawn, reference compound]
Stomach uptake ([1]; n = 4): 2.7 % ID/g
Tumor uptake ([1]; 4 h p.i., n = 4): ~ 9 % ID/g
Kidneys uptake ([1]; 24 h p.i., n = 4): 29 ± 6 % ID/g
Tumor uptake ([1]; 24 h p.i., n = 4): ~ 6 % ID/g
tissue uptake at 1 h [2, 7]: 1.34 ± 0.53 %ID/g
tissue uptake at 4 h [2, 7]: 0.02 ± 0.03 %ID/g
tissue uptake at 1 h [2, 8]: 0.69 ± 0.02 %ID/g
tissue uptake at 1 h [2, 9]: 0.61 ± 0.34 %ID/g
tissue uptake at 1 h [2, 10]: 2.03 ± 0.63 %ID/g
tissue uptake at 4 h [2, 10]: 0.68 ± 0.08 %ID/g
tissue uptake at 24 h [2, 11]: 0.22 ± 0.04 %ID/g
tissue uptake at 1 h [2, 12]: 53.5 ± 4.18 %ID/g
tissue uptake at 4 h [2, 12]: 49.4 ± 2.92 %ID/g
tissue uptake at 24 h [2, 13]: 29.2 ± 5.11 %ID/g
tissue uptake at 24 h [2, 14]: 25.8 ± 9.18 %ID/g
tissue uptake at 1 h [2, 15]: 2.69 ± 0.18 %ID/g
tissue uptake at 4 h [2, 15]: 2.26 ± 0.3 %ID/g
tissue uptake at 24 h [2, 16]: 1.42 ± 0.17 %ID/g
tissue uptake at 24 h [2, 17]: 0.25 ± 0.46 %ID/g
tissue uptake at 1 h [2, 18]: 2.75 ± 0.52 %ID/g
tissue uptake at 4 h [2, 18]: 0.82 ± 0.36 %ID/g
tissue uptake at 24 h [2, 19]: 0.33 ± 0.11 %ID/g
tissue uptake at 1 h [2, 20]: 5.19 ± 0.84 %ID/g
tissue uptake at 4 h [2, 20]: 1.14 ± 0.13 %ID/g
tissue uptake at 24 h ([2]; pancreas, 100 kBq, 24 h p.i., n = 4, read-out: Pancreas uptake): 0.28 ± 0.06 %ID/g
tissue uptake at 1 h [2, 21]: 1 ± 0.38 %ID/g
tissue uptake at 4 h [2, 21]: 0.59 ± 0.21 %ID/g
tissue uptake at 1 h [2, 22]: 0.55 ± 0.21 %ID/g
tissue uptake at 4 h [2, 22]: 0.22 ± 0.06 %ID/g
tissue uptake at 1 h [2, 23]: 2.69 ± 0.53 %ID/g
tissue uptake at 4 h [2, 23]: 1.62 ± 0.5 %ID/g
tissue uptake at 24 h [2, 24]: 0.61 ± 0.18 %ID/g
tissue uptake at 24 h [2, 25]: 0.25 ± 0.28 %ID/g
tissue uptake at 1 h [2, 26]: 9.57 ± 3.05 %ID/g
tissue uptake at 4 h [2, 26]: 8.04 ± 3.26 %ID/g
tissue uptake at 24 h [2, 27]: 6.07 ± 1.28 %ID/g
tissue uptake ([2]; tumor, 100 kBq, time point not stated): 8 to 9 %ID/g
Stability in PBS, intact labeled ligand ([3]; 1 h): 99%
Stability in PBS, intact labeled ligand ([3]; 4 h): 98%
Stability in PBS, intact labeled ligand ([3]; 24 h): 95%
Pancreas uptake ([4]; 1 h, ref Tworowska et al.): 32 % ID/g
Kidney uptake ([4]; 1 h, ref Tworowska et al.): 21 % ID/g
Pancreas uptake ([4]; 4 h, ref Tworowska et al.): 15 % ID/g
Kidney uptake ([4]; 24 h, ref Tworowska et al.): 10 % ID/g
MTD (maximum tolerated absorbed dose) to the kidneys ([4]; mice): 18–23 Gy
Tumor uptake ([4]; ref Tworowska et al.): ~ 20 % ID/g
Reduction in kidney uptake [5]: 3 fold

C[C@@H](O)[C@H](NC(=O)[C@@H]1CSSC[C@H](NC(=O)[C@@H](Cc2ccccc2)NC(=O)[C@H]2CC[C@H](CNC(=O)CN3CCN(CC(N)=O)CCN(CC(N)=O)CCN(CC(N)=O)CC3)CC2)C(=O)N[C@@H](Cc2ccc(O)cc2)C(=O)N[C@H](Cc2c[nH]c3ccccc23)C(=O)N[C@@H](CCCCN)C(=O)N[C@@H]([C@@H](C)O)C(=O)N1)C(=O)O [[^212Pb]Pb-eSOMA-01, metal not drawn]
More tumor uptake than [212Pb]Pb-eSOMA-02 ([1]; 1 h and 24 h, p < 0.05): 61%
Stomach uptake ([1]; n = 4): 7.1 % ID/g
Tumor uptake ([1]; 4 h p.i., n = 4): ~ 9 % ID/g
Tumor uptake ([1]; 24 h p.i., n = 4): ~ 6 % ID/g
tissue uptake at 1 h [2, 7]: 1.8 ± 0.37 %ID/g
tissue uptake at 1 h [2, 8]: 1.75 ± 0.44 %ID/g
tissue uptake at 4 h [2, 8]: 0.14 ± 0.09 %ID/g
tissue uptake at 1 h [2, 9]: 0.71 ± 0.33 %ID/g
tissue uptake at 1 h [2, 10]: 2.12 ± 0.39 %ID/g
tissue uptake at 4 h [2, 10]: 0.97 ± 0.12 %ID/g
tissue uptake at 24 h [2, 11]: 0.23 ± 0.02 %ID/g
tissue uptake at 24 h ([2]; intestines, 24 h block: co-injection of excess (25 nmol) unlabeled peptide, read-out: Intestines uptake): 0.06 ± 0.04 %ID/g
tissue uptake at 1 h [2, 12]: 78.8 ± 12.1 %ID/g
tissue uptake at 4 h [2, 12]: 39.6 ± 4.95 %ID/g
tissue uptake at 24 h [2, 13]: 22 ± 4.06 %ID/g
tissue uptake at 24 h [2, 14]: 17.8 ± 3.85 %ID/g
tissue uptake at 1 h [2, 15]: 4.72 ± 0.53 %ID/g
tissue uptake at 4 h [2, 15]: 2.73 ± 0.49 %ID/g
tissue uptake at 24 h [2, 16]: 1.7 ± 0.31 %ID/g
tissue uptake at 24 h [2, 17]: 1.07 ± 0.14 %ID/g
tissue uptake at 1 h [2, 18]: 4.05 ± 0.69 %ID/g
tissue uptake at 4 h [2, 18]: 1.38 ± 0.54 %ID/g
tissue uptake at 24 h [2, 19]: 0.44 ± 0.2 %ID/g
tissue uptake at 1 h ([2]; muscle, 100 kBq, n = 4, read-out: Muscle uptake): 0.22 ± 0.51 %ID/g
tissue uptake at 1 h [2, 20]: 7.86 ± 0.43 %ID/g
tissue uptake at 4 h [2, 20]: 1.72 ± 0.16 %ID/g
tissue uptake at 1 h [2, 21]: 2.23 ± 0.26 %ID/g
tissue uptake at 4 h [2, 21]: 0.17 ± 0.74 %ID/g
tissue uptake at 1 h [2, 22]: 0.98 ± 0.28 %ID/g
tissue uptake at 4 h [2, 22]: 0.23 ± 0.12 %ID/g
tissue uptake at 1 h [2, 23]: 7.08 ± 0.28 %ID/g
tissue uptake at 4 h [2, 23]: 2.51 ± 1.51 %ID/g
tissue uptake at 24 h [2, 24]: 0.87 ± 0.53 %ID/g
tissue uptake at 24 h [2, 25]: 0.05 ± 0.01 %ID/g
tissue uptake at 1 h [2, 26]: 16.1 ± 2.31 %ID/g
tissue uptake at 4 h [2, 26]: 10.9 ± 3.81 %ID/g
tissue uptake at 24 h [2, 27]: 6.83 ± 1.28 %ID/g
Stability in PBS, intact labeled ligand ([3]; 1 h): 99%
Stability in PBS, intact labeled ligand ([3]; 4 h): 97%
Stability in PBS, intact labeled ligand ([3]; 24 h): 94%
Maximum dose injected into mice [6]: around 0.2 MBq
